Assay results: article PMC10065799, “High-throughput profiling of sequence recognition by tyrosine kinases and SH2 domains using bacterial peptide display” (eLife, 2023)

Assays:
Test in all cases: pTyr-Var library bacterial peptide display kinase screen (enrichment scores)
Fer kinase domain = format: biochemical, mouse; conditions: sheet "Fer"
c-Src kinase domain = c-Src kinase domain (Homo sapiens, UniProt P12931); format: biochemical; conditions: sheet "Src";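 further: log2 fold change in enrichment of variant over reference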
EPHB1 kinase domain = format: biochemical, human; conditions: for Screen: sheet EPHB1, effect of the variant peptide relative to its reference peptide in the pTyr-Var library screen (enrichment scores); for Screen (variant relative to reference peptide, measured in the pTyr-Var library screen): sheet "EPHB1", variant seq vs reference seq, bacterial peptide display enrichment
EPHB2 kinase domain = format: biochemical, human; conditions: sheet EPHB2
c-Abl kinase domain = target: T1, c-Abl kinase domain (Mus musculus, UniProt P00520); format: biochemical; conditions: sheet "Abl"; effect of variant peptide relative to its reference peptide in pTyr-Var library screen (enrichment);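 further: log2 fold change in enrichment of variant over reference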
T1 sequence (P00520 242-493 limits assumed): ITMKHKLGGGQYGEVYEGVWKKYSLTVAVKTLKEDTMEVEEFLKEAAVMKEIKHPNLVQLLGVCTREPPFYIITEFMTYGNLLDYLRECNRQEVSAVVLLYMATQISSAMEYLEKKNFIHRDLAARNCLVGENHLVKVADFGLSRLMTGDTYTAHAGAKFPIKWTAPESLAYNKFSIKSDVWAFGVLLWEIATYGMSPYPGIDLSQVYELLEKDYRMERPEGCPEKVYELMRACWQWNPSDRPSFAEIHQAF

[1] = value of the variant peptide against its reference peptide in the pTyr-Var library screen with Fer
[2] = effect of the variant peptide relative to its reference peptide in the pTyr-Var library screen
[3] = effect of variant peptide relative to its reference peptide in the pTyr-Var library screen (enrichment scores)
[4] = variant peptide relative to its reference peptide, pTyr-Var library screen enrichment
[5] = variant peptide versus its reference peptide in the pTyr-Var library screen
[6] = effect of the variant relative to its reference peptide in the pTyr-Var library screen

| Sequence | Screen (Fer kinase domain; [1]) | Screen (c-Src kinase domain; [2]) | Screen (EPHB1 kinase domain) | Screen (EPHB2 kinase domain; [3]) | Screen (Fer kinase domain; [4]) | Screen (c-Abl kinase domain) | Screen (variant relative to reference peptide, measured in the pTyr-Var library screen) (EPHB1 kinase domain) | Screen (c-Src kinase domain; [5]) | Screen (EPHB2 kinase domain; [6]) |
| --- | --- | --- | --- | --- | --- | --- | --- | --- | --- |
| INPIIYAFVGG [CCR5_Y297_E302G] | -0.02742 | 0.06385 | 0.07603 | 0.0201 | – | – | – | – | – |
| KSIQLYDTPFE [SHB_Y297_G293S_YF] | – | – | – | 0.4609 | 0.2984 | -1.035 | 0.5631 | – | – |
| LLILEYAKFGS [RET_Y806_V804L_YF] | – | – | -0.7851 | -0.9388 | – | – | – | – | – |
| LQIPMYEVQWK [KIT_Y553_K550I] | 1.505 | 1.435 | 3.846 | 4.801 | – | – | – | – | – |
| LSIQCYLRASD [HMGCS2_Y262_L266S] | 1.097 | – | 1.205 | 0.8903 | – | – | – | – | – |
| MKVPLYETPAG [PGM5_Y358_V357L] | 0.5188 | – | 0.8032 | 0.6636 | – | – | – | -1.534 | – |
| QNAGDYFDLFG [PTPN11_Y62_T59A_YF] | – | – | -0.1063 | -0.3726 | – | – | – | -0.3977 | – |
| QNWELYSEGLG [CNKSR1_Y665_R662W] | – | 2.202 | 3.643 | 3.538 | – | – | – | – | – |
| QRALLYEDTLF [UNC13D_Y56_A59T_YF] | – | – | – | – | 0.1557 | – | 0.5027 | 0.3849 | 0.5663 |
| RGESFYQDTMN [RARS_Y338_R341T] | – | – | 2.46 | 1.971 | 1.596 | – | – | – | – |
| RRIHSYRSHLW [VHL_Y112_G114S] | – | – | – | – | – | -2.663 | -1.453 | -3.054 | -0.1154 |
| WAFNLYDINKF [KCNIP3_Y174_D179Y_YF] | 1.417 | -0.1467 | 0.7978 | 0.891 | – | – | – | – | – |
